This note sets out measurements from a melting point compilation (Tetko et al.; mined from patent text by program, amines drawn as free bases though some values may be those of a salt).

Structures are written as SMILES. Bounds are passed on as bounds.

One may read the melting point as the temperature of the solid-liquid transition.

`N#CCCNC(=O)c1cccc(-c2ccc3c(c2)N(Cc2ccc(Cl)cc2Cl)CC3)c1` showed a melting point of 148 to 149 °C.
To `COc1cc2c(cc1OC)C(C)=[N+]([O-])C(c1cccs1)N2` (configuration not stated) belongs 180 to 185 °C.
With `COc1ccc(C(=O)NCCCCCNC(=O)c2ccc(OC)cc2)cc1`, the melting point was 160 to 161 °C.
Compound `O=C(Oc1cc(F)ccc1Br)c1cc2cc(CCl)ccc2oc1=O` came in with a melting point of 203 to 205 °C.
To `O=C(NCCn1cncn1)c1ccc(Br)cc1` belongs 160 to 162 °C.
The figure for `Cc1nc(N=CN(C)C)nc(N(C)C)n1` is 61 °C.
As for `Cc1cc(C)c(C(C#N)=CO)c(C)c1`, the melting point lay in the range of 124 to 126 °C.
To `Cc1cccc2c(C#N)cn(C)c12` belongs 116 °C; to `CC1(C)CN=C(NCC2CCCc3ccc(S(=O)(=O)c4ccccc4)cc32)NC1` (configuration not stated), 140 to 145 °C.
The figure for `CC(C)c1ccc2ncc(C(=O)O)c(O)c2c1` is 298 °C.
Take `c1ccc2c(c1)CCCC2c1c[nH]cn1` (configuration not stated): the melting point lay within 105 to 110 °C.
The figure for `c1cc(OC[C@H]2CO2)c2cccnc2c1` is 79 to 81 °C; for `Cn1cc(C(=O)NCc2ccc(F)cc2)c(=O)c2cc(CN3CCOCC3)sc21` it is 214 to 216 °C.
`CC(=O)N[C@H]1CCC(=O)N2CCC[C@@H](C(=O)O)N2C1=O` registered a melting point of more than 250 °C.
As for `COC(=O)CCc1nc(C=O)ccc1O`, the melting point is 92 to 95 °C.
On to `COc1cc(COc2nn(-c3ccccc3)cc2C=CC(=O)NNC(C)=O)ccc1OCc1nc(-c2ccco2)oc1C`, for which the melting point lay in the range of 221 to 222 °C.
To `Cn1c(-c2ccccc2[N+](=O)[O-])nc2ccccc21` belongs 132 to 134 °C; to `CC1(C)c2ccccc2N2Cc3cc(N=Nc4ccc([N+](=O)[O-])cc4)ccc3OC21C` (configuration not stated), 156 °C.
Consider `CC(C#N)c1ccc(CCc2ccccc2C(=O)O)cc1` (configuration not stated), for which the melting point is 73 °C.
In turn, `Oc1c(Cl)nc(-c2ccccc2)nc1Cl` displayed a melting point of 138 to 140 °C.
To `CCCCCCCCCCC1(CCCCCCCCCC)c2cc(Br)ccc2-c2ccc(Br)cc21` belongs 38.1 to 38.4 °C; to `CCOC(=O)c1cnn2c1c(NC1CCCCC1)nc1ccccc12`, 132 to 135 °C.
To `Cc1cccc(-c2nc(N)ncc2-c2ccc(=O)n(C(C)C)n2)c1` belongs 198 °C; to `O=c1c(-c2ccccc2)c[nH]n1-c1cccc(Cl)c1`, 211 to 212 °C.
The figure for `CC(C)c1nn(-c2nnc(C(F)(F)F)s2)cc1CCCO` is 89 to 90 °C.
The compound `CC(C#Cc1ccc2c(c1)CCN(Cc1ccc(-c3ccc(F)cc3)cn1)C2=O)N(O)C(N)=O` (configuration not stated) had a melting point of 118 to 120 °C.
The figure for `O=C(CCl)N1CCC(Cc2ccc(F)cc2)CC1` is 85 to 87 °C; for `COC(=O)c1cc(Br)c(O)c(C(C)=O)c1` it is 106 to 108 °C.
The figure for `C[C@@H]1CCNC[C@@H]1N(C)c1nccc2[nH]ccc12` is 127 °C.
To `Cc1ccnc(N2CCN(CCc3c(C)n4c5c(cc(NC(=O)c6ccccc6)cc35)CCC4)CC2)c1` belongs 218 °C; to `CNC(=O)N(O)CCCNC(=O)c1cccc(Oc2ccccc2)c1`, 175 to 177 °C.
With `N#Cc1cc(=O)cc(-c2ccccc2)o1`, the melting point lay in the range of 146 to 149 °C.
The figure for `C[C@]12CCC(=O)N[C@@H]1CCc1cc(-c3nccs3)ccc12` is 206 to 207 °C.
For `COC1C(O)C(CO)OC1n1cnc2c(=O)[nH]c(N)nc21` (configuration not stated), the melting point lay within 236 to 238 °C.
The compound `COc1ccc2[nH]c(SCc3nccc(N(C)C)n3)nc2c1` yielded a melting point of 182 to 183 °C.
The figure for `CCCSCc1cccc(-c2nc(=O)c3ccccc3s2)n1` is 112 to 113 °C.
To `Nc1c([N+](=O)[O-])ccc(Sc2ccccc2)c1Cl` belongs 144 to 146 °C; to `CCN(CC)C(=O)c1nc(-c2ccccc2)c2ccccc2n1`, 101 °C; to `CC(C)c1[nH]n(-c2c(Cl)cccc2Cl)c2nc(Cc3ccc(CC(=O)NCCN(C)C)cc3)nc(=O)c1-2`, 170 to 172 °C.
The figure for `CCOC(=O)c1c(N)c2c(n1C)N=CCN2` is 119 to 121 °C.
`CN1CCC(c2nn(-c3ccccc3C#N)c3ccccc23)CC1` registered a melting point of 117 to 119 °C.
Take `COc1ccc(-c2cc(C(F)F)n3ncc(-c4ccncc4)c3n2)cc1`: the melting point came to 206 °C.
For the compound `O=c1c(Br)c(N2CCC(c3ccccc3)CC2)ccn1CC1CC1`, the melting point turned out to be 150 °C.
Compound `COC(=O)COc1cccc2c1CCCC2=O` registered a melting point of 82 to 83 °C.
In turn, `COc1cccc(N(C)C(=O)c2cnc(-c3cccc(C)c3)s2)c1` returned a melting point of 88 °C.
The figure for `Nc1nc(N)c2ncn(CC/C=C/P(=O)(O)O)c2n1` is more than 325 °C.
`COc1ccc2ncn(C3CCN(C(C)c4ccccc4)CC3)c(=O)c2c1` (configuration not stated) showed a melting point of 124 °C.
To `CCCC(C)Nc1c([N+](=O)[O-])cc(S(C)(=O)=O)c(C)c1[N+](=O)[O-]` (configuration not stated) belongs 85 to 88 °C; to `O=C(NCCCCCCNC(=O)c1ccc2c(c1)OCO2)c1ccc2c(c1)OCO2`, 183 to 185 °C; to `OCc1nc(-c2ccc(Cl)cc2)co1`, 68 to 71.5 °C.
With `C=CCc1c(C(F)(F)F)[nH]n(-c2ccc(Br)c(Cl)c2)c1=O`, the melting point turned out to be 117 °C.
The figure for `CCOC(=O)c1ncn(-c2ccc(C(F)(F)F)cc2N)c1C` is 185 to 186 °C; for `c1ccc(OCCNc2nc(Nc3cc(C4CC4)n[nH]3)c3ccccc3n2)cc1` it is 203 °C; for `N#CC(=NO)c1cc(F)ccc1F` it is 64 to 67 °C.
For `Oc1ccc2c(c1)C(Cc1ccnc(F)c1)(Cc1ccnc(F)c1)c1ccccc1-2`, the melting point fell in the range of 200 to 201 °C.
The figure for `CN(C)c1ccc(CN2C(=O)C3(COc4cc5c(cc43)OCCO5)c3ccccc32)cn1` (configuration not stated) is 93 to 95 °C; for `CN1CCCNC1=C[N+](=O)[O-]` it is 114 to 115 °C.
To `Cc1nc(-n2cc(-c3ccc(F)cc3)nn2)sc1C(=O)NCc1ccccc1` belongs 203 to 205 °C; to `CC(=O)OC/C=C(\C)CCc1c(C)c(O)c(C)c(C)c1O`, 94.5 to 96 °C.
`CC(C)n1nc(-c2cc(C#N)c(C(=O)O)nc2-c2ccccc2)ccc1=O` yielded a melting point of 196 to 198 °C.
The figure for `CCOC(=O)c1cn(NCC(=O)OC)c2cc3c(cc2c1=O)OCO3` is 142 to 145 °C; for `Cc1ccc(Cl)cc1N1CN(C)CN(C)C1=S` it is 157 to 159 °C.
The figure for `CC(C)=C(C#N)C(=O)NCc1ccc(Cl)c(Cl)c1` is 131 to 132 °C.
In turn, `CC(C)C(=O)N[C@@H](CSC(=O)C(C)C)C(=O)NCCSC(=O)c1ccccc1` showed a melting point of 141 to 143 °C.
The figure for `COc1ccc(C2(C#N)CC2)cc1OC1CCCC1` is 80.4 °C; for `COc1c(F)cc2[nH]c(C)c(CC(=O)OCC[Si](C)(C)C)c2c1F` it is 86.9 to 88.7 °C; for `COc1ccc(C(=O)c2ccc3cc(OC)ccc3c2)c(F)c1` it is 120 to 122 °C.
